From patent US9278942B2, “Non-steroidal compounds as androgen receptor modulators” (FLX Discoveries Oy, priority 2011, dated 2016)

Molecular target: T1, human AR (Homo sapiens, UniProt P10275)
T1 construct: expressed in transfected cells; host or cells: COS-1
T1 sequence (P10275 1-920): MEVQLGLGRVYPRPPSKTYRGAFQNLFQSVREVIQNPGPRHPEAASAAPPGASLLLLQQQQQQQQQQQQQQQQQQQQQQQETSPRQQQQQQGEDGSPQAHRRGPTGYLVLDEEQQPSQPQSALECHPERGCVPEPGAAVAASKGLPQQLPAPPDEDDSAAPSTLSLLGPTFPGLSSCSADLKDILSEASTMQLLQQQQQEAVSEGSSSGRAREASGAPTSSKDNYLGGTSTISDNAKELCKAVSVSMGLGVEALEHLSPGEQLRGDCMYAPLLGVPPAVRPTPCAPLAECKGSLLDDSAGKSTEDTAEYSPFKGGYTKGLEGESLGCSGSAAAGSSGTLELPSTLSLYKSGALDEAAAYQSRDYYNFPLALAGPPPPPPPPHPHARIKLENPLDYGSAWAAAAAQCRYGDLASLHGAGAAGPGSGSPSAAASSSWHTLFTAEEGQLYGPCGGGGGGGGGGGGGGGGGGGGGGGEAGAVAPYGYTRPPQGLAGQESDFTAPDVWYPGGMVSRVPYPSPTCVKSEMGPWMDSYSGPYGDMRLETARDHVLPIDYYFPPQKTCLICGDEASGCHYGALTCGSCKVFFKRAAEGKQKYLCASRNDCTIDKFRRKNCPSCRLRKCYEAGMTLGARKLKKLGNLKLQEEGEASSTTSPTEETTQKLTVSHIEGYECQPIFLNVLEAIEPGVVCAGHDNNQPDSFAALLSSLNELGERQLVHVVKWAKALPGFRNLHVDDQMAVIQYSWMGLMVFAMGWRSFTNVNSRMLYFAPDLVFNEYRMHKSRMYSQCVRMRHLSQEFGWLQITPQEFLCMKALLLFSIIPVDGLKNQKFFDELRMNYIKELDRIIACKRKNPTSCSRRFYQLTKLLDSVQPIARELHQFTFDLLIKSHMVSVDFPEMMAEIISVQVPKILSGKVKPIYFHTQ
Assay: AR antagonism assay: inhibition of transcriptional activation of AR (Probasin-luc reporter, COS-1 cells)
Type: cell-based
Details: compound 10.0 μM; relative luciferase response: 100% for testosterone (no antiandrogenic effect), 0% for complete antagonism
Summary of the method: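 COS-1 cells transfected 24 h with human AR vector, Probasin-luc reporter and β-gal control, then exposed 18 h at 37 °C to 10 μM compound plus 100 nM testosterone. Luciferase read-out normalised to β-galactosidase activity and protein content.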

## CC(C)(O)C(=O)Nc1ccc([N+](=O)[O-])c(C(F)(F)F)c1 [Hydroxyflutamide, reference compound]
  AR antagonism against 100 nM testosterone ± S.D.: 13.0 ± 1.1%
